We go through 15 molecules from patent US20130053410A1, “SUBSTITUTED HETEROARYL 2',3',7',7A'-TETRAHYDROSPIRO[PYRROLE-3,6'-PYRROLO[1,2-C]IMIDAZOLE]-1',2(1H,5'H)-DIONE” (priority 2011, published 2013).

Chain of interaction between p53 and MDM2 proteins (recombinant GST-tagged MDM2, biotinylated p53 peptide) (Q00987 whole entry): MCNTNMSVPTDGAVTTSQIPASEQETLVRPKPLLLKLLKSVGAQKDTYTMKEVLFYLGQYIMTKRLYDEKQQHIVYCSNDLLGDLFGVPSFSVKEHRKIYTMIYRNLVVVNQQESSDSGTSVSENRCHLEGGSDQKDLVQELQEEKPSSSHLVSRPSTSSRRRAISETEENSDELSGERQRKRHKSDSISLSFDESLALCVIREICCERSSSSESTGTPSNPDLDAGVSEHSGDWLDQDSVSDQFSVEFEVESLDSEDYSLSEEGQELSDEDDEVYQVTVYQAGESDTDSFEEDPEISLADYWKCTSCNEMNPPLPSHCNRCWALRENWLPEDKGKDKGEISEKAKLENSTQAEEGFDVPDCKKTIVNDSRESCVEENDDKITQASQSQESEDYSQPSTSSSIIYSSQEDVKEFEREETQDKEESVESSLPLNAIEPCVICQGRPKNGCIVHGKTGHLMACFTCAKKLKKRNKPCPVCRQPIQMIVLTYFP

The test concerns the target interaction between p53 and MDM2 proteins (recombinant GST-tagged MDM2, biotinylated p53 peptide) (Homo sapiens, UniProt Q00987). Briefly: HTRF assay of inhibition of the p53-MDM2 interaction. The test is classed as binding. The note with it: bsa: 0.02%. The protocol:
The ability of the compounds to inhibit the interaction between p53 and MDM2 proteins was measured by an HTRF (homogeneous time-resolved fluorescence) assay in which recombinant GST-tagged MDM2 binds to a peptide that resembles the MDM2-interacting region of p53. Binding of GST-MDM2 protein and p53-peptide (biotinylated on its N-terminal end) is registered by the FRET (fluorescence resonance energy transfer) between Europium (Eu)-labeled anti-GST antibody and streptavidin-conjugated Allophycocyanin (APC).
[…] Add 10 uL diluted compounds (1:5 dilution in reaction buffer) to each well, mix by shaking. Add 20 uL biotinylated p53 peptide (180 nM working solution) in reaction buffer to each well and mix on shaker. Incubate at 37° C. for 1 h. Add 20 uL streptavidin-APC and Eu-anti-GST antibody mixture (6 nM Eu-anti-GST and 60 nM streptavidin-APC working solution) in TBS buffer with 0.2% BSA, shake at room temperature for 30 minutes and read using a TRF-capable plate reader at 665 and 615 nm (Victor 5, Perkin ElmerWallac). If not specified, the reagents were purchased from Sigma Chemical Co.
Background: Time-resolved FRET reads energy transfer from a long-lived donor to a nearby acceptor.
For the molecule `COc1cc(C(=O)O)ccc1N1CN2[C@@H](CC(C)(C)C)[C@@]3(C(=O)Nc4cc(C)ncc43)[C@@H](c3cccc(Cl)c3F)[C@@H]2C1=O` (racemic) [Example 2, rac-4-((3′R,5S,7S,7aR)-7-(3-chloro-2-fluorophenyl)-6′-methyl-5-neopentyl-1,2′-dioxo-1′,2′,7,7a-tetrahydrospiro[pyrrolo[1,2-c]imidazole-6,3′-pyrrolo[3,2-c]pyridine]-2(1H,3H,5H)-yl)-3-methoxybenzoic acid], the IC50 (commonly the midpoint of a concentration-inhibition curve) worked out at 102 nM. Then `COc1cc(C(N)=O)ccc1N1CN2[C@@H](CC(C)(C)C)[C@@]3(C(=O)Nc4cc(C)ncc43)[C@@H](c3cccc(Cl)c3F)[C@@H]2C1=O` (racemic) [Example 3a, rac-4-((3′R,5S,7S,7aR)-7-(3-chloro-2-fluorophenyl)-6′-methyl-5-neopentyl-1,2′-dioxo-1′,2′,7,7a-tetrahydrospiro[pyrrolo[1,2-c]imidazole-6,3′-pyrrolo[3,2-c]pyridine]-2(1H,3H,5H)-yl)-3-methoxybenzamide], with 89.9 nM; and `COc1cc(C(N)=O)ccc1N1CN2[C@@H](CC(C)(C)C)[C@]3(C(=O)Nc4cc(C)ncc43)[C@@H](c3cccc(Cl)c3F)[C@@H]2C1=O` (racemic) [Example 3b, rac-4-((3′S,5S,7S,7aR)-7-(3-chloro-2-fluorophenyl)-6′-methyl-5-neopentyl-1,2′-dioxo-1′,2′,7,7a-tetrahydrospiro[pyrrolo[1,2-c]imidazole-6,3′-pyrrolo[3,2-c]pyridine]-2(1H,3H,5H)-yl)-3-methoxybenzamide], with 1160 nM. As for `COc1cc(C(=O)O)ccc1N1CN2[C@@H](CC(C)(C)C)[C@@]3(C(=O)Nc4ccncc43)[C@@H](c3cccc(Cl)c3F)[C@@H]2C1=O` (racemic) [Example 5, rac-4-((3′R,5S,7S,7aR)-7-(3-chloro-2-fluorophenyl)-5-neopentyl-1,2′-dioxo-1′,2′,7,7a-tetrahydrospiro[pyrrolo[1,2-c]imidazole-6,3′-pyrrolo[3,2-c]pyridine]-2(1H,3H,5H)-yl)-3-methoxybenzoic acid], the half-inhibitory concentration (IC50) turned out to be 797 nM.

Take `COc1cc2c(cn1)[C@@]1(C(=O)N2)[C@H](CC(C)(C)C)N2CN(c3ccc(C(=O)O)cc3OC)C(=O)[C@H]2[C@@H]1c1cccc(Cl)c1F` (racemic) [Example 6, rac-4-((3′R,5S,7S,7aR)-7-(3-chloro-2-fluorophenyl)-6′-methoxy-5-neopentyl-1,2′-dioxo-1′,2′,7,7a-tetrahydrospiro[pyrrolo[1,2-c]imidazole-6,3′-pyrrolo[3,2-c]pyridine]-2(1H,3H,5H)-yl)-3-methoxybenzoic acid]: the IC50 was 23 nM. On to `COc1cc2c(cn1)[C@@]1(C(=O)N2)[C@H](CC(C)(C)C)N2CN(c3ccc(C(N)=O)cc3OC)C(=O)[C@H]2[C@@H]1c1cccc(Cl)c1F` (racemic) [Example 7, rac-4-((3′R,5S,7S,7aR)-7-(3-chloro-2-fluorophenyl)-6′-methoxy-5-neopentyl-1,2′-dioxo-1′,2′,7,7a-tetrahydrospiro[pyrrolo[1,2-c]imidazole-6,3′-pyrrolo[3,2-c]pyridine]-2(1H,3H,5H)-yl)-3-methoxybenzamide], for which the IC50 stood at 15 nM. In the case of `COc1cc(C(=O)O)ccc1N1CN2[C@@H](CC(C)(C)C)[C@@]3(C(=O)Nc4nc(Cl)ccc43)[C@@H](c3cccc(Cl)c3F)[C@@H]2C1=O` (racemic) [Example 9, rac-4-((3′R,5S,7S,7aR)-6′-chloro-7-(3-chloro-2-fluorophenyl)-5-neopentyl-1,2′-dioxo-1′,2′,7,7a-tetrahydrospiro[pyrrolo[1,2-c]imidazole-6,3′-pyrrolo[2,3-b]pyridine]-2(1H,3H,5H)-yl)-3-methoxybenzoic acid] it was 15 nM; in that of `COc1cc(C(N)=O)ccc1N1CN2[C@@H](CC(C)(C)C)[C@@]3(C(=O)Nc4nc(Cl)ccc43)[C@@H](c3cccc(Cl)c3F)[C@@H]2C1=O` (racemic) [Example 10, rac-4-((3′R,5S,7S,7aR)-6′-chloro-7-(3-chloro-2-fluorophenyl)-5-neopentyl-1,2′-dioxo-1′,2′,7,7a-tetrahydrospiro[pyrrolo[1,2-c]imidazole-6,3′-pyrrolo[2,3-b]pyridine]-2(1H,3H,5H)-yl)-3-methoxybenzamide], 19.3 nM; in that of `COc1cc(C(=O)O)ccc1N1CN2[C@@H](CC(C)(C)C)[C@@]3(C(=O)Nc4ncccc43)[C@@H](c3cccc(Cl)c3F)[C@@H]2C1=O` (racemic) [Example 15, rac-4-((3′R,5S,7S,7aR)-7-(3-chloro-2-fluorophenyl)-5-neopentyl-1,2′-dioxo-1′,2′,7,7a-tetrahydrospiro[pyrrolo[1,2-c]imidazole-6,3′-pyrrolo[2,3-b]pyridine]-2(1H,3H,5H)-yl)-3-methoxybenzoic acid], 96 nM. Regarding `COc1cc(C(=O)O)ccc1N1CN2[C@@H](CC(C)(C)C)[C@@]3(C(=O)Nc4cc(C)cnc43)[C@@H](c3cccc(Cl)c3F)[C@@H]2C1=O` (racemic) [Example 16, rac-4-((3′S,5S,7S,7aR)-7-(3-chloro-2-fluorophenyl)-6′-methyl-5-neopentyl-1,2′-dioxo-1′,2′,7,7a-tetrahydrospiro[pyrrolo[1,2-c]imidazole-6,3′-pyrrolo[3,2-b]pyridine]-2(1H,3H,5H)-yl)-3-methoxybenzoic acid], the half-inhibitory concentration (IC50) worked out at 21.8 nM.

As for `COc1cc(C(N)=O)ccc1N1CN2[C@@H](CC(C)(C)C)[C@@]3(C(=O)Nc4cc(Cl)ncc43)[C@@H](c3cccc(Cl)c3F)[C@@H]2C1=O` [Example 1, 4-((3′R,5S,7S,7aR)-6′-chloro-7-(3-chloro-2-fluorophenyl)-5-neopentyl-1,2′-dioxo-1′,2′,7,7a-tetrahydrospiro[pyrrolo[1,2-c]imidazole-6,3′-pyrrolo[3,2-c]pyridine]-2(1H,3H,5H)-yl)-3-methoxybenzamide], the half-inhibitory concentration (IC50) came out at 6.8 nM. Then `COc1cc(C(N)=O)ccc1N1C(=O)[C@H]2[C@H](c3cccc(Cl)c3F)[C@]3(C(=O)Nc4cc(Cl)ncc43)[C@H](CC(C)(C)C)N2[C@@H]1C` [Example 11, 4-((3S,3′R,5S,7S,7aR)-6′-chloro-7-(3-chloro-2-fluorophenyl)-3-methyl-5-neopentyl-1,2′-dioxo-1′,2′,7,7a-tetrahydrospiro[pyrrolo[1,2-c]imidazole-6,3′-pyrrolo[3,2-c]pyridine]-2(1H,3H,5H)-yl)-3-methoxybenzamide], with 7.5 nM; and `CC[C@@H]1N(c2ccc(C(N)=O)cc2OC)C(=O)[C@H]2[C@H](c3cccc(Cl)c3F)[C@]3(C(=O)Nc4cc(Cl)ncc43)[C@H](CC(C)(C)C)N12` [Example 12, 4-((3S,3′R,5S,7S,7aR)-6′-chloro-7-(3-chloro-2-fluorophenyl)-3-ethyl-5-neopentyl-1,2′-dioxo-1′,2′,7,7a-tetrahydrospiro[pyrrolo[1,2-c]imidazole-6,3′-pyrrolo[3,2-c]pyridine]-2(1H,3H,5H)-yl)-3-methoxybenzamide], with 7 nM. Then `COc1cc(C(N)=O)ccc1N1C(=O)[C@H]2[C@H](c3cccc(Cl)c3F)[C@]3(C(=O)Nc4cc(Cl)ncc43)[C@H](CC(C)(C)C)N2[C@@H]1CO` [Example 13, 4-((3S,3′R,5S,7S,7aR)-6′-chloro-7-(3-chloro-2-fluorophenyl)-3-(hydroxymethyl)-5-neopentyl-1,2′-dioxo-1′,2′,7,7a-tetrahydrospiro[pyrrolo[1,2-c]imidazole-6,3′-pyrrolo[3,2-c]pyridine]-2(1H,3H,5H)-yl)-3-methoxybenzamide], with 9.6 nM; and `COc1cc(C(N)=O)ccc1N1C(=O)[C@H]2[C@H](c3cccc(Cl)c3F)[C@]3(C(=O)Nc4cc(Cl)ncc43)[C@H](CC(C)(C)C)N2[C@@H]1CCC1CCOCC1` [Example 14, 4-((3S,3′R,5S,7S,7aR)-6′-chloro-7-(3-chloro-2-fluorophenyl)-5-neopentyl-1,2′-dioxo-3-(2-(tetrahydro-2H-pyran-4-yl)ethyl)-1′,2′,7,7a-tetrahydrospiro[pyrrolo[1,2-c]imidazole-6,3′-pyrrolo[3,2-c]pyridine]-2(1H,3H,5H)-yl)-3-methoxybenzamide], with 7.5 nM.
